Source: article PMC13198257, “An aerosolized dual-action autotaxin inhibitor-PPARγ agonist for the treatment of pulmonary fibrosis” (Cell Reports Medicine, 2026)

Tested on: lung gene expression
Test: RNA sequencing of lung tissue (BLM/EL244 vs BLM)
Assay type: in vivo, mouse
Conditions: lung tissue of BLM-treated mice, BLM/EL244 vs BLM
Description: RNA quality was assessed using an Agilent TapeStation 4150 with the High Sensitivity […] ScreenTape (Agilent), according to the manufacturer’s protocols. For library preparation, the QuantSeq 3’mRNA-Seq Library Prep Kit (Lexogen) was used according to manufacturer’s instructions. Briefly, 500 ng of RNA from each sample was used for first-strand synthesis, followed by RNA template removal, and second-strand synthesis initiated by random primers. In-line barcodes were introduced at this step, and this was followed by magnetic bead-based purification. The resulting libraries were amplified for 15 cycles and re-purified, with quantity and quality assessed on a Qubit 4 Fluorometer with the Invitrogen Qubit dsDNA HS Assay and an Agilent Tapestation 4150 with the High Sensitivity D1000 assay kit, respectively. The quantified libraries were pooled equimolarly; 50ng of total library mix was used for Adapter Conversion PCR Amplification using the Universal Library Conversion Kit (App-A), Version: V1.0 (MGI Tech Co., Ltd.), according to the manufacturer’s instructions.
The quantity and quality of the purified adapter conversion PCR (AC-PCR) product were evaluated on a Qubit 4 Fluorometer with the Invitrogen Qubit dsDNA HS Assay and on an Agilent Tapestation 4150 with the High Sensitivity D1000 assay kit, respectively. This was followed by DNA denaturation, Single-Strand Circularisation, Enzymatic Digestion, Enzymatic Digestion Product Cleanup and Quality Control steps on 1 pmol of AC-PCR product, according to the Universal Library Conversion Kit (App-A) User Manual (Version: A3).
Finally, 60 fmol of ssCirDNA were used for DNB preparation and sequencing on a DNBSEQ-G400 platform at the BSRC Alexander Fleming Genomics Facility, using a G400 App-A FCS SE100 High-throughput Sequencing Set (MGI Tech Co., Ltd.), according to the manufacturer’s instructions.
Alignment of the FASTQ files was performed against the mouse genome build mm10 using a custom Bash script.[143] Read counting on the 3′ UTRs and differential expression analysis were conducted using the metaseqR2 bioconductor package.[144] Genes corresponding to the following biotypes were excluded: polymorphic_pseudogene, processed_transcript, pseudogene, IG_V_pseudogene, misc_RNA, IG_C_gene, IG_J_gene, IG_D_gene, IG_LV_gene, TR_V_gene, TR_V_pseudogene, TEC, and processed_pseudogene. Gene counts were normalized with DESEQ[145] through metaseqR2. Genes with more than 10 counts in at least 50% of the samples were kept for further processing. For differential expression analysis, the PANDORA algorithm[146] was used to estimate a meta p-value integrating the results from the DESEQ, DESEQ2,[147] edgeR,[148] limma,[149] NBPSeq,[150] and NOISeq[151] algorithms. All additional parameters were set to default values.
Pathway enrichment analysis was performed for the Gene Ontology Biological process (BP) and Molecular Function (MF) terms through GeneCodis 4.[152] The volcano plots, scatterplots, Venn diagrams, and dot plots were generated using the ggplot2 Bioconductor package.

SMILES: O=C1NC(=O)C(Cc2ccc(OCCC3CCN(C(=O)OCc4cc(Cl)cc(Cl)c4)CC3)cc2)S1 (stereo not shown) [EL244, 3,5-dichlorobenzyl 4-(2-(4-((2,4-dioxothiazolidin-5-yl)methyl)phenoxy)ethyl)piperidine-1-carboxylate]
- Lncpint nFC: 2.08
- Lpin1 log2 nFC: 0.80
- Lpin1 nFC: 1.75
- Lrrc74b log2 nFC: 1.02
- Lrrc74b nFC: 2.03
- Ltbp4 log2 nFC: 0.81
- Ltbp4 nFC: 1.76
- Lyve1 log2 nFC: 0.96
- Lyve1 nFC: 1.94
- Map3k6 log2 nFC: 0.95
- Map3k6 nFC: 1.93
- Mapt log2 nFC: 0.89
- Mapt nFC: 1.85
- Mcf2l log2 nFC: 0.95
- Mcf2l nFC: 1.93
- Mettl7a1 log2 nFC: 0.80
- Mettl7a1 nFC: 1.75
- Mir29c log2 nFC: 0.89
- Mir29c nFC: 1.85
- Mir1668 log2 nFC: 0.75
- Mir1668 nFC: 1.69
- Mir6899 log2 nFC: 0.84
- Mir6899 nFC: 1.80
- Mtcl1 log2 nFC: 0.73
- Mtcl1 nFC: 1.66
- Ndrg2 log2 nFC: 0.88
- Ndrg2 nFC: 1.84
- Nek5 log2 nFC: 0.81
- Nek5 nFC: 1.76
- Nova2 log2 nFC: 0.90
- Nova2 nFC: 1.86
- Nr1d1 log2 nFC: 0.84
- Nr1d1 nFC: 1.79
- Nrgn log2 nFC: 1.04
- Nrgn nFC: 2.05
- Nrxn2 log2 nFC: 0.88
- Nrxn2 nFC: 1.84
- Ogn log2 nFC: 0.86
- Ogn nFC: 1.82
- Osgin1 log2 nFC: 0.74
- Osgin1 nFC: 1.68
- Pcolce2 log2 nFC: 0.98
- Pcolce2 nFC: 1.97
- Pcp4l1 log2 nFC: 0.75
- Pcp4l1 nFC: 1.68
- Phactr1 log2 nFC: 0.74
- Phactr1 nFC: 1.67
- Phf1 log2 nFC: 0.75
- Phf1 nFC: 1.68
- Pla2g1b log2 nFC: 0.79
- Pla2g1b nFC: 1.72
- Plxna2 log2 nFC: 0.78
- Plxna2 nFC: 1.72
- Ppargc1a log2 nFC: 0.86
- Ppargc1a nFC: 1.82
- Ppl log2 nFC: 0.87
- Ppl nFC: 1.83
- Prob1 log2 nFC: 0.76
- Prob1 nFC: 1.70
- Ptgfr log2 nFC: 0.93
- Ptgfr nFC: 1.90
- Pxdc1 log2 nFC: 0.83
- Pxdc1 nFC: 1.78
- Rapgef5 log2 nFC: 0.88
- Rapgef5 nFC: 1.84
- Rara log2 nFC: 0.73
- Rara nFC: 1.66
- Rgs9 log2 nFC: 1.01
- Rgs9 nFC: 2.02
- Rora log2 nFC: 0.80
- Rora nFC: 1.74
- S1pr4 log2 nFC: 0.94
- S1pr4 nFC: 1.91
- Scn3a log2 nFC: 0.75
- Scn3a nFC: 1.68
- Scube2 log2 nFC: 0.74
- Scube2 nFC: 1.68
- Sec14l3 log2 nFC: 0.69
- Sec14l3 nFC: 1.62
- Sec14l4 log2 nFC: 0.77
- Sec14l4 nFC: 1.70
- Sell log2 nFC: 1.03
- Sell nFC: 2.04
- Sema3g log2 nFC: 0.78
- Sema3g nFC: 1.72
- Sftpa1 log2 nFC: 0.70
- Sftpa1 nFC: 1.62
- Sgip1 log2 nFC: 0.90
- Sgip1 nFC: 1.87
- Sgms1 log2 nFC: 0.71
- Sgms1 nFC: 1.63
- Slc2a4rg-ps log2 nFC: 0.85
- Slc2a4rg-ps nFC: 1.80
- Slc7a10 log2 nFC: 0.97
- Slc7a10 nFC: 1.96
- Slc16a11 log2 nFC: 0.79
- Slc16a11 nFC: 1.73
- Slc43a3 log2 nFC: 0.73
- Slc43a3 nFC: 1.66
- Slit3 log2 nFC: 1.02
- Slit3 nFC: 2.03
- Snora21 log2 nFC: 0.75
- Snora21 nFC: 1.68
- Sntb1 log2 nFC: 0.72
- Sntb1 nFC: 1.64
- Sorbs1 log2 nFC: 0.70
- Sorbs1 nFC: 1.62
- Sorbs3 log2 nFC: 0.80
- Sorbs3 nFC: 1.74
- Srcin1 log2 nFC: 0.91
- Srcin1 nFC: 1.87
- Stard8 log2 nFC: 0.69
- Stard8 nFC: 1.61
- Syne1 log2 nFC: 0.70
- Syne1 nFC: 1.62
